Measured values as given in ChEMBL document CHEMBL2074339, “The use of a dendrimer-propranolol prodrug to bypass efflux transporters and enhance oral bioavailability” (J Control Release, 2004).

Key:
[1] = target: T1, ATP-dependent translocase ABCB1 (Homo sapiens, UniProt P08183); assay: TP_TRANSPORTER: transepithelial transport of propranolol in Caco2 cells; assay type: functional, cell-based; settings: caco-2
[2] = target: T1, ATP-dependent translocase ABCB1; assay: TP_TRANSPORTER: transepithelial transport in Caco2 cells; assay type: functional, cell-based; settings: caco-2

T1 sequence (P08183 whole entry): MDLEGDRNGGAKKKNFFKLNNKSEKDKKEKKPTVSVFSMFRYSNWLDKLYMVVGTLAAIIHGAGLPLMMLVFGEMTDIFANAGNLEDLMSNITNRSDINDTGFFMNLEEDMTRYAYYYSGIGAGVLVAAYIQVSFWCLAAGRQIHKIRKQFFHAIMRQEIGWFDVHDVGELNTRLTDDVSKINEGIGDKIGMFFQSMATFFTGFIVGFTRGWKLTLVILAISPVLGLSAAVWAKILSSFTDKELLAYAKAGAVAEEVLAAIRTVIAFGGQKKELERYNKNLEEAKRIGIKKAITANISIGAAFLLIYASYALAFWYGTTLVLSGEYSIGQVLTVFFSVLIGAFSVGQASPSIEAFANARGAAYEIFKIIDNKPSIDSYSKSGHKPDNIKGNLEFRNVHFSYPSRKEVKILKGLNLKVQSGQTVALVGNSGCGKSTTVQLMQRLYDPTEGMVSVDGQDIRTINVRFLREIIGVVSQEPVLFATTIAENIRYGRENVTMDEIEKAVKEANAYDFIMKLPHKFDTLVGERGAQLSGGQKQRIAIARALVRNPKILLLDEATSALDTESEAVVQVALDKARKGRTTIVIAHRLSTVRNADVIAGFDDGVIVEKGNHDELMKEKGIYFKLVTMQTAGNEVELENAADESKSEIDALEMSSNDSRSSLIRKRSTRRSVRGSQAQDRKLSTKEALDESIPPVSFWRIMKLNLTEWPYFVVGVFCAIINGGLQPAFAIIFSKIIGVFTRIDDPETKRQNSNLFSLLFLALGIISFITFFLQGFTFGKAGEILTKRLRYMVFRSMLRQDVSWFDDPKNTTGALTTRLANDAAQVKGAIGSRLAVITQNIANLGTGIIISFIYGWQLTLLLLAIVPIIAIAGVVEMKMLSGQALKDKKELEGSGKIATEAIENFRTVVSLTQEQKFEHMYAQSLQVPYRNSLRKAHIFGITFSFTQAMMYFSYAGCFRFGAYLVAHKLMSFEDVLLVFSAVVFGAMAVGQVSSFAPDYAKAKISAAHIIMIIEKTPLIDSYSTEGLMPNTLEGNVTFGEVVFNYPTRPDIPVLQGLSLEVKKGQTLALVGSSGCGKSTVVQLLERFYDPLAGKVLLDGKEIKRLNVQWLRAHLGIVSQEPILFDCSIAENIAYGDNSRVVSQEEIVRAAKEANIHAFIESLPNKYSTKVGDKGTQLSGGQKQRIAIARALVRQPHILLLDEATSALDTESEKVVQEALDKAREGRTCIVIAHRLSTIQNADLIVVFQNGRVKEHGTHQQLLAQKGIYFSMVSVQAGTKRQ

## G3 PAMAM DENDRIMER
[1]
  Activity: is not an inhibitor [-]

## CC(C)NCC(O)COc1cccc2ccccc12 (configuration not stated) [PROPRANOLOL]
[2]
  Activity: substrate [+]
